Laboratory results as given in US10709719B2, “Substituted bicyclic compounds” (BRISTOL-MYERS SQUIBB COMPANY, priority 2014, dated 2020).
“Also recorded” adds a separate entry of the source.

Columns and labels:
S1P1 = S1P1 (Homo sapiens (Human), UniProt P21453); experiment: Receptor [35S]GTPγS binding assay (S1P1 GTPγS), membranes from S1P1/CHO cells; assay type: biochemical; conditions: result in words
Procedure: Compounds were loaded in a 384 Falcon v-bottom plate (0.5 μl/well in a 11 point, 3-fold dilution). Membranes prepared from S1P1/CHO cells or EDG3-Gal5-bla HEK293T cells (EDG3 equivalent S1P3) were added to the compound plate (40 μl/well, final protein 3 μg/well) with MULTIDROP®. […] 40 μl of the [^35S] GTP solution was added to the compound plate with a final concentration of 0.2 nM. The reaction was kept at room temperature for 45 min. At the end of incubation, all the mixtures in the compound plate were transferred to Millipore 384-well FB filter plates via the VELOCITY11® Vprep liquid handler. The filter plate was washed with water 4 times by using the manifold Embla plate washer and dried at 60° C. for 45 min. MicroScint 20 scintillation fluid (30 μl) was added to each well for counting on the Packard TOPCOUNT®.
A larger value for the GTPγS S1P3 EC50 value indicated less activity in the GTPγS S1P3 binding assay.

S1P3 (EDG3) = S1P3 (EDG3) (Homo sapiens (Human), UniProt Q99500); experiment: Receptor [35S]GTPγS binding assay (S1P3 GTPγS), membranes from EDG3-Gal5-bla HEK293T cells; assay type: biochemical; conditions: GTPγS S1P1 versus S1P3, result in words
S1P3 (EDG3), sequence (Q99500 whole entry): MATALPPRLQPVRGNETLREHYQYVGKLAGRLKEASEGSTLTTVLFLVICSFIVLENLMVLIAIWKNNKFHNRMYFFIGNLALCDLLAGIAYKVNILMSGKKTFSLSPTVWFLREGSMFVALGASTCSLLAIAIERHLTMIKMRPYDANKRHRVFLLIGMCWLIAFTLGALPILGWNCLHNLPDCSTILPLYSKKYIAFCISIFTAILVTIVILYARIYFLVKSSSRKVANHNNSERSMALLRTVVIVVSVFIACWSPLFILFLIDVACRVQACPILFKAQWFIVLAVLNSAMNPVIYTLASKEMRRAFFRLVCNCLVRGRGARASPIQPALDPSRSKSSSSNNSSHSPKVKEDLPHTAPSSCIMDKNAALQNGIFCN
Procedure: Compounds were loaded in a 384 Falcon v-bottom plate (0.5 μl/well in a 11 point, 3-fold dilution). Membranes prepared from S1P1/CHO cells or EDG3-Gal5-bla HEK293T cells (EDG3 equivalent S1P3) were added to the compound plate (40 μl/well, final protein 3 μg/well) with MULTIDROP®. [^35S]GTP (1250 Ci/mmol, Perkin Elmer) was diluted in assay buffer: 20 mM HEPES, pH7.5, 10 mM MgCl2, 150 mM NaCl, 1 mM EGTA(ethylene glycol tetraacetic acid), 1 mM DTT (Dithiothreitol), 10 μM GDP, 0.1% fatty acid free BSA, and 10 μg/ml Saponin to 0.4 nM. 40 μl of the [^35S] GTP solution was added to the compound plate with a final concentration of 0.2 nM. The reaction was kept at room temperature for 45 min. At the end of incubation, all the mixtures in the compound plate were transferred to Millipore 384-well FB filter plates via the VELOCITY11® Vprep liquid handler. The filter plate was washed with water 4 times by using the manifold Embla plate washer and dried at 60° C. for 45 min. MicroScint 20 scintillation fluid (30 μl) was added to each well for counting on the Packard TOPCOUNT®.
A smaller value for GTPγS S1P EC50 value indicated greater activity for the compound in the GTPγS S1P binding assay. A larger value for the GTPγS S1P3 EC50 value indicated less activity in the GTPγS S1P3 binding assay. […]

[1] = test system: adjuvant-induced arthritis, hind paw volume; experiment: Rat adjuvant induced arthritis assay (AA); assay type: in vivo, Lewis rats; conditions: Lewis rat, prophylactic oral dosing regimen
Procedure: The rat adjuvant-induced arthritis model is an animal model for human rheumatoid arthritis. Male Lewis rats (150-175 g; Harlan, n=8 treatment group) were immunized at the base of the tail with 100 μl of 10 mg/ml freshly ground Mycobacterium butyricum (Difco Laboratories) in incomplete Freund's adjuvant (sigma). Animals were dosed once daily with the test article (as a solution or suspension in the vehicle) or vehicle alone (polyethylene glycol 300, “PEG300”) starting from the day of immunization. The volumes of their hind paws were measured in a water displacement plethysmometer (Ugo Basile, Italy). The baseline paw measurements were taken before onset of the disease (between day 7 to day 10). The paw measurements were then taken three times a week until the end of the study on day 20 to 21. All procedures involving animals were reviewed and approved by the Institutional Animal Care Use Committee.

[2] = test system: experimental autoimmune encephalomyelitis, clinical score; experiment: Mouse experimental autoimmune encephalomyelitis assay (EAE); assay type: in vivo; conditions: C57Bl/6 mice, prophylactic oral dosing regimen
[3] = test system: experimental autoimmune encephalomyelitis, clinical score; experiment: Rat experimental autoimmune encephalomyelitis (EAE); assay type: in vivo, Lewis rats; conditions: Lewis rat, prophylactic oral dosing regimen
Procedure: Female Lewis rats (150-200 g; Harlan) were immunized at the base of the tail with 0.1 ml of a complete Freund's adjuvant emulsion containing 0.5 mg/mL guinea pig myelin basic protein (Genemed Synthesis) and 2 mg/mL Mycobacterium butyricum (Difco). Beginning on Day 7, rats (n=11/group) were scored individually at least 3×/wk according to the following scheme: [table] Average clinical scores were calculated for each treatment group on each day of assessment.

anti-dsDNA antibodies = experiment: MRL/lpr lupus model: anti-dsDNA antibody titers (ELISA); assay type: in vivo; conditions: MRL/lpr mice, p.o. daily
Procedure: (§1) MRL/lpr is a spontaneous model of lupus. Male MRL/lpr mice (Jackson Laboratory) at the age of 12-14 weeks were enrolled for the study (N=12). Mice were dosed p.o. daily with vehicle (18.4% (w/v) hydroxypropyl-b-cyclodextrin in 13.8 mM citric acid) or with Example 681 at 0.06, 0.3, 1.5 mg/kg. Mice were bled every other week for anti-dsDNA antibodies measured by ELISA using pooled serum from diseased MRL/lpr mice as a positive comparator in each assay. The data were expressed in arbitrary units as a ratio of the titer of the test serum to the titer of the pooled MRL/lpr immune serum.

kidney histology score = experiment: MRL/lpr lupus model: kidney histological analysis; assay type: in vivo; conditions: MRL/lpr mice, p.o. daily
Procedure: as §1
At the end of study, one kidney was collected into 10% neutral buffered formalin and ZincTris fixatives. Fixed tissues were processed into paraffin blocks, sectioned at […], and stained with H&E or PASH. Kidney sections were graded using following criteria: Glomerular Damage: 1. Mesangial matrix thickening, cell proliferation, 2. Crescent formation, cellular deposits/casts in Bowman's space, 3. Cellular infiltration, mononuclear cells in glomerular tufts, 4. Fibrosis of Bowman's capsule. Tubular damage: 1. Infiltration of mononuclear cells, 2. Severity of tubular damage, 3. Protein casts. Tubulo-interstitial damage: 1. Fibrosis, 2. Infiltration of mononuclear cells. Each subcategory was assigned a score from 0-4, with the scores for glomerular indices representing the mean from 20 glomeruli per kidney. […]

S1P1, sequence (P21453 whole entry): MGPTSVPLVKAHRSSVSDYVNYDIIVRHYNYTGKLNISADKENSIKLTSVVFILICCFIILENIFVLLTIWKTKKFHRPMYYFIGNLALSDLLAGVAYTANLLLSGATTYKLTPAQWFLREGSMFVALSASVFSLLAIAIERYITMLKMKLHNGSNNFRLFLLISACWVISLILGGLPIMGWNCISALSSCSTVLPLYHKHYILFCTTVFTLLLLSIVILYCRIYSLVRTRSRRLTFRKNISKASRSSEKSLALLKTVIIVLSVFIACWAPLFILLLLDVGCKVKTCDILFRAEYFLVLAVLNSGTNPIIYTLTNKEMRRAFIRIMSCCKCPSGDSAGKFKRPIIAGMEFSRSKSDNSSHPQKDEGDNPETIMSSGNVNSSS

| Structure (SMILES) | activity as an agonist of S1P1 (S1P1) | inhibition of disease progression as measured by reduced paw swelling [1] | inhibition of disease progression as measured by clinical scores [2] | further results |
| --- | --- | --- | --- | --- |
| COCCCCCC1CCc2cc([C@H]3CC[C@](N)(COP(=O)(O)O)C3)ccc2C1 (single isomer, unassigned) [Example 689] | possessed activity as an agonist of S1P | – | – | selectivity over S1P3 (S1P3 (EDG3)): selective over S1P3 |
| COc1ccccc1CCC1CCc2cc([C@H]3CC[C@](N)(COP(=O)(O)O)C3)ccc2C1 (single isomer, unassigned) [Example 697] | possessed activity as an agonist of S1P1 | – | – | – |
| COCCCCC[C@H]1CCc2cc([C@H]3CC[C@](N)(CO)C3)ccc2C1 [Example 672, ((1R,3S)-1-amino-3-((S)-6-(5-methoxypentyl)-5,6,7,8-tetrahydronaphthalen-2-yl)cyclopentyl)methanol] | – | showed inhibition of disease progression | – | – |
| CCOCCC[C@@H]1CCc2cc([C@H]3CC[C@](N)(CO)C3)ccc2C1 [Example 679, ((1R,3S)-1-amino-3-((S)-6-(3-ethoxypropyl)-5,6,7,8-tetrahydronaphthalen-2-yl)cyclopentyl)methanol] | – | showed inhibition of disease progression | showed inhibition of disease progression; also recorded: inhibit disease progression | inhibition of disease progression as measured by reduced clinical scores [3]: showed inhibition of disease progression |
| COc1ccccc1CC[C@@H]1CCc2cc([C@H]3CC[C@](N)(CO)C3)ccc2C1 [Example 681, ((1R,3S)-1-amino-3-((S)-6-(2-methoxyphenethyl)-5,6,7,8-tetrahydronaphthalen-2-yl)cyclopentyl)methanol] | – | – | showed inhibition of disease progression; also recorded: inhibit disease progression | inhibition of disease progression as measured by anti-dsDNA titers (anti-dsDNA antibodies): showed inhibition of disease progression; inhibition of disease progression as measured by kidney histology (kidney histology score): showed inhibition of disease progression |
